# Legend:
# In vitro cytotoxic assay = format: cell-based; conditions: normal peripheral blood mononuclear cells (PBMCs)
# [1] = test system: breast adenocarcinoma (MCF-7); assay: In vitro cytotoxic assay; format: cell-based, human; conditions: for IC50: Homo sapiens, MCF7, 48 h, read-out: IC50 (mean ± SEM) MCF-7; for SI (selectivity index) MCF-7: normal PBMC vs MCF-7
# [2] = test system: non-small cell lung cancer cells (A-549); assay: In vitro cytotoxic assay; format: cell-based, human; conditions: for IC50: Homo sapiens, A549, 48 h, read-out: IC50 (mean ± SEM) A-549; for SI (selectivity index) A-549: normal PBMC vs A-549
# [3] = test system: hepatocellular carcinoma (HepG-2); assay: In vitro cytotoxic assay; format: cell-based, human; conditions: for IC50: Homo sapiens, HepG2, 48 h, read-out: IC50 (mean ± SEM) HepG-2; for SI (selectivity index) HepG-2: normal PBMC vs HepG-2
# [4] = test system: prostate carcinoma (PC-3); assay: In vitro cytotoxic assay; format: cell-based, human; conditions: for IC50: Homo sapiens, 48 h, read-out: IC50 (mean ± SEM) PC-3; for SI (selectivity index) PC-3: normal PBMC vs PC-3
# EGFR^T790M = EGFR^T790M (Homo sapiens, UniProt P00533, T790M); assay: HTRF kinase inhibition assay, EGFR^T790M
# Sequence of EGFR^T790M (P00533 25-1210 T790M): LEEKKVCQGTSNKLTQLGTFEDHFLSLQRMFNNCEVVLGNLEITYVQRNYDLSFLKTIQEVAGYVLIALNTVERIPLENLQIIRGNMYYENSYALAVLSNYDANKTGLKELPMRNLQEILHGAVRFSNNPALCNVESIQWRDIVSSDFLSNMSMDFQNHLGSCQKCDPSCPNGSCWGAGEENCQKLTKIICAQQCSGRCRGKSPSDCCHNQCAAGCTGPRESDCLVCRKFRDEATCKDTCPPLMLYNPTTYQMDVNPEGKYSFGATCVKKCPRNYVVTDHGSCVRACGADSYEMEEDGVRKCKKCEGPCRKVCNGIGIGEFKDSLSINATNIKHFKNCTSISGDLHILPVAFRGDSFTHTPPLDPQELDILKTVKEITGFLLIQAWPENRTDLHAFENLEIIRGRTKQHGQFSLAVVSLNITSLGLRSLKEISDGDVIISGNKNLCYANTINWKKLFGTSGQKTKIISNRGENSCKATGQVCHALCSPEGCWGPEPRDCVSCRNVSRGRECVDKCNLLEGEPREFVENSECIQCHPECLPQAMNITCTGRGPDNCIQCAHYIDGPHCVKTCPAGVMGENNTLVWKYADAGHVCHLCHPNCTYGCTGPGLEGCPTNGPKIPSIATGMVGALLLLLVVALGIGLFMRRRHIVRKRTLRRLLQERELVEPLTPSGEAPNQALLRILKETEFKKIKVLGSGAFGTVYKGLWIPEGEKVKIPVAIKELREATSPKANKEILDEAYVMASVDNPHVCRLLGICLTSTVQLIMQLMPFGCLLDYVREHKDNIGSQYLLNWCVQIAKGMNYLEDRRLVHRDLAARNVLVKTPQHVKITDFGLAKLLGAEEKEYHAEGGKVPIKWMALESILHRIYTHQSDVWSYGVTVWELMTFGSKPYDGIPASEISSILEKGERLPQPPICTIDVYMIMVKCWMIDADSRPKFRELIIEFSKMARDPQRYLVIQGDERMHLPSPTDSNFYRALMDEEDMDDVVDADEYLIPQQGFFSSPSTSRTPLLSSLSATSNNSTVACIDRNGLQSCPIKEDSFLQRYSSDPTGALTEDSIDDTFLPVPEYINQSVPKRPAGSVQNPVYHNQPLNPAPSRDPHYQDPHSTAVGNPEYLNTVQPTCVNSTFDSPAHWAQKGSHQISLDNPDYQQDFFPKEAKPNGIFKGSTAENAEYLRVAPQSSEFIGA
# EGFR^WT = EGFR^WT (Homo sapiens, UniProt P00533); assay: HTRF kinase inhibition assay, EGFR^WT
# Sequence of EGFR^WT (P00533 25-1210): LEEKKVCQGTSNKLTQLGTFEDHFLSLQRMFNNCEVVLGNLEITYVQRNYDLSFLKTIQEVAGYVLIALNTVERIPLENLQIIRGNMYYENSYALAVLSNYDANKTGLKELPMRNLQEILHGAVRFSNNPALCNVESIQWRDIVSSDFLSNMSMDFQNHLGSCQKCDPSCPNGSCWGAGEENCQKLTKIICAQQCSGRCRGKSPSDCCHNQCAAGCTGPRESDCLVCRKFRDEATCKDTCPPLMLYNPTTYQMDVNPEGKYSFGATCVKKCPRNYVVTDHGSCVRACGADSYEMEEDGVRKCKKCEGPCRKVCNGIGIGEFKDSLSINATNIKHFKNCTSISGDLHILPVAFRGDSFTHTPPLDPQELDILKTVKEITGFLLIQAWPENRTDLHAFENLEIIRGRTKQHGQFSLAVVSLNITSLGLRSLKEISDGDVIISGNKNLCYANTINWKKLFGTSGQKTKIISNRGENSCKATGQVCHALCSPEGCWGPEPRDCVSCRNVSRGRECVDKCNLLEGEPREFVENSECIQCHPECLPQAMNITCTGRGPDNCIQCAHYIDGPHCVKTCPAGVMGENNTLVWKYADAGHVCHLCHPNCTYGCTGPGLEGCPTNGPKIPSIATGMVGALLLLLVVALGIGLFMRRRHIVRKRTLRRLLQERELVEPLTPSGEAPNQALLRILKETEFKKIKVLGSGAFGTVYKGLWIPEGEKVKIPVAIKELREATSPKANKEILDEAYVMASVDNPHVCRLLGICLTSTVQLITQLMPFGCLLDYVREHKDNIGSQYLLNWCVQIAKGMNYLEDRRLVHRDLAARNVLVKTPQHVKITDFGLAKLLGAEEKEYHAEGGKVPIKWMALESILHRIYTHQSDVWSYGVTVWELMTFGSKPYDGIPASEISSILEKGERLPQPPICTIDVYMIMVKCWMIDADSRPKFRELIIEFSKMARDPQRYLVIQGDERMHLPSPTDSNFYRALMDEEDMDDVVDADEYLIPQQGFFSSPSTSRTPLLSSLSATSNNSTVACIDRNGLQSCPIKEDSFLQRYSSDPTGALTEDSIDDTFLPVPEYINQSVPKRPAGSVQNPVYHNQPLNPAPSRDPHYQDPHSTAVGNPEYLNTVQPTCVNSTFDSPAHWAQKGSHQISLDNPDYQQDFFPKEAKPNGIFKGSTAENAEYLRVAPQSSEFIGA
# p53 ubiquitination = assay: In vivo p53 ubiquitination inhibition of MCF-7 cells; format: cell-based; conditions: Homo sapiens, MCF7, 6 h, read-out: IC50 (mean ± SEM) p53 ubiquitination
IC50 (EGFR^T790M) [µM],IC50 (EGFR^WT) [µM],IC50 (p53 ubiquitination) [µM],fold more potent EGFR^WT inhibitor than erlotinib (EGFR^WT; EGFR^WT) [fold],Compound,IC50 at 48 h (In vitro cytotoxic assay) [µM],IC50 [1] [µM],IC50 [2] [µM],IC50 [3] [µM],IC50 [4] [µM],SI (selectivity index) MCF-7 [1],SI (selectivity index) A-549 [2],SI (selectivity index) HepG-2 [3],SI (selectivity index) PC-3 [4],folds more potent than doxorubicin and erlotinib ([1]; MCF-7 cells) [folds],folds more potent than doxorubicin ([2]; A-549 cell line) [folds],folds less potency compared to erlotinib ([2]; A-549) [folds]
,,,,"CC(C)NC(=S)NC(=O)Cc1ccccc1 [Compound 2a, N-(Isopropylcarbamothioyl)-2-phenylacetamide]",121 ± 11.3,37.73 ± 0.08,34.57 ± 0.06,57.85 ± 0.07,26.8 ± 2.21,,,,,,,
,,,,"Nc1ccccc1NC(=S)NC(=O)Cc1ccccc1 [Compound 2c, N-((2-Aminophenyl)carbamothioyl)-2-phenylacetamide]",145 ± 14.9,21.76 ± 0.08,27.81 ± 0.04,47.66 ± 0.04,25.44 ± 0.04,,,,,,,
,,,,"O=C(Cc1ccccc1)NC(=S)Nc1cccc(O)c1 [Compound 2d, N-((3-Hydroxyphenyl)carbamothioyl)-2-phenylacetamide]",158 ± 16.4,24.74 ± 0.08,20.84 ± 0.04,34.77 ± 0.03,39.3,,,,,,,
,,,,"O=C(Cc1ccccc1)NC(=S)Nc1ccc([N+](=O)[O-])cc1Cl [Compound 2e, N-((2-Chloro-4-nitrophenyl)carbamothioyl)-2-phenylacetamide]",169 ± 17.4,25.64 ± 0.08,25.96 ± 0.05,37.76 ± 0.05,40.56 ± 0.05,,,,,,,
,,,,"O=C(Cc1ccccc1)Nc1nc2ccccc2[nH]1 [Compound 3, N-(1H-Benzo[d]imidazol-2-yl)-2-phenylacetamide]",179 ± 18.8,6.59 ± 0.07,10.42 ± 0.05,37.73 ± 0.02,17.29 ± 0.03,,,,,,,
0.17 ± 0.05,0.25 ± 0.01,0.00068 ± 1e-05,,"CC(C)Nc1nnc(Cc2ccccc2)[nH]1 [Compound 5a, 5-Benzyl-N-isopropyl-4H-1,2,4-triazol-3-amine]",175 ± 18.2,5.42 ± 0.05,10.37 ± 0.04,35.66 ± 0.04,16.49 ± 0.05,SI = 32.26,SI = 16.86,SI = 4.90,SI = 10.60,,,
0.13 ± 0.11,0.22 ± 0.15,0.00062 ± 5e-05,,"c1ccc(Cc2nnc(Nc3nccs3)[nH]2)cc1 [Compound 5b, N-(5-Benzyl-4H-1,2,4-triazol-3-yl)thiazol-2-amine]",166 ± 17.4,4.18 ± 0.03,8.27 ± 0.03,38.49 ± 0.02,18.22 ± 0.03,SI = 39.65,SI = 20.04,SI = 4.30,SI = 9.09,,,
0.14,0.24 ± 0.3,,,"Oc1cccc(Nc2nnc(Cc3ccccc3)[nH]2)c1 [Compound 5c, 3-((5-Benzyl-4H-1,2,4-triazol-3-yl)amino)phenol]",146 ± 16.1,4.33 ± 0.04,12.3 ± 0.04,27.59 ± 0.04,18.44 ± 0.04,SI = 33.79,SI = 11.89,SI = 5.23,SI = 7.93,,,
0.12 ± 0.18,0.18 ± 0.1,,,"c1ccc(Cc2nc(Nc3nccs3)n(-c3ccccc3)n2)cc1 [Compound 6a, N-(3-Benzyl-1-phenyl-1H-1,2,4-triazol-5-yl)thiazol-2-amine]",157 ± 16.9,4.3 ± 0.04,5.2 ± 0.03,10.48 ± 0.03,16.3 ± 0.09,SI = 36.61,SI = 30.27,SI = 15.02,SI = 9.65,,,
0.09 ± 0.01,0.08 ± 0.05,0.0005 ± 5e-05,1,"Oc1cccc(Nc2nc(Cc3ccccc3)nn2-c2ccccc2)c1 [Compound 6b, 3-((3-Benzyl-1-phenyl-1H-1,2,4-triazol-5-yl)amino)phenol]",178 ± 17.7,1.29 ± 0.03,3.18 ± 0.03,5.47 ± 0.02,13.21 ± 0.06,SI = 138.16,SI = 56.04,SI = 32.58,SI = 13.49,3.2,2.6,
0.13 ± 0.07,0.15 ± 0.02,0.00048 ± 2e-05,,"O=[N+]([O-])c1ccc(Nc2nc(Cc3ccccc3)nn2-c2ccccc2)c(Cl)c1 [Compound 6c, 3-Benzyl-N-(2-chloro-4-nitrophenyl)-1-phenyl-1H-1,2,4-triazol-5-amine]",188 ± 19.8,2.51 ± 0.06,5.8 ± 0.05,7.73 ± 0.04,26.41 ± 0.05,SI = 74.76,SI = 32.35,SI = 24.27,SI = 7.10,,,
0.18 ± 0.11,0.22 ± 0.05,,,"O=c1nc(Cc2ccccc2)[nH]c(Nc2nccs2)n1 [Compound 7, 4-Benzyl-6-(thiazol-2-ylamino)-1,3,5-triazin-2(5H)-one]",165 ± 18.1,4.65 ± 0.07,7.43 ± 0.04,29.75 ± 0.03,17.9 ± 0.03,,,,,,,~2
,,,,"CC(C)N=c1nc(Cc2ccccc2)[nH]c(=S)[nH]1 [Compound 8a, 6-Benzyl-4-(isopropylimino)-3,4-dihydro-1,3,5-triazine-2(1H)-thione]",173 ± 18.9,13.75 ± 0.08,25.46 ± 0.05,59.84 ± 0.05,36.55 ± 0.03,SI = 12.61,SI = 6.81,SI = 2.91,SI = 4.74,,,
,,,,"S=c1[nH]c(Cc2ccccc2)nc(=Nc2nccs2)[nH]1 [Compound 8b, 6-Benzyl-4-(thiazol-2-ylimino)-3,4-dihydro-1,3,5-triazine-2(1H)-thione]",197 ± 20.7,17.95 ± 0.04,37.21 ± 0.03,60.48 ± 0.05,42.56 ± 0.06,SI = 10.95,SI = 5.28,SI = 3.25,SI = 4.62,,,
,,,,"Oc1cccc(N=c2nc(Cc3ccccc3)[nH]c(=S)[nH]2)c1 [Compound 8c, 6-Benzyl-4-((3-hydroxyphenyl)imino)-3,4-dihydro-1,3,5-triazine-2(1H)-thione]",189 ± 19.9,10.31 ± 0.04,8.29 ± 0.03,45.49 ± 0.04,32.48 ± 0.04,SI = 18.32,SI = 22.78,SI = 4.15,SI = 5.81,,,
,,,,"O=[N+]([O-])c1ccc(N=c2nc(Cc3ccccc3)[nH]c(=S)[nH]2)c(Cl)c1 [Compound 8d, 6-Benzyl-4-((2-chloro-4-nitrophenyl)imino)-3,4-dihydro-1,3,5-triazine-2(1H)-thione]",179 ± 19,14.77 ± 0.05,9.5 ± 0.06,47.86 ± 0.05,39.55 ± 0.08,SI = 12.12,SI = 18.85,SI = 3.74,SI = 4.52,,,
,,,,"COc1cccc2c1C(=O)c1c(O)c3c(c(O)c1C2=O)C[C@@](O)(C(=O)CO)C[C@@H]3O[C@H]1C[C@H](N)[C@H](O)[C@H](C)O1 [DOX, doxorubicin, reference compound]",250 ± 26.6,,8.2 ± 0.08,4.51 ± 0.26,8.11 ± 0.05,,,,,,,
,,,,"C#Cc1cccc(Nc2ncnc3cc(OCCOC)c(OCCOC)cc23)c1 [erlotinib, reference compound]",45.8 ± 26.6,,3.76 ± 0.2,,8.89 ± 0.6,,,,,,,
